Experimental data published in paper PMC3674995, “Safety, Pharmacokinetic, and Efficacy Studies of Oral DB868 in a First Stage Vervet Monkey Model of Human African Trypanosomiasis” (PLoS Neglected Tropical Diseases, 2013).
Several values for one entry are separate records, joined by “and”; a condition that tells them apart may be missing. Identical values can stand only once. Like-named read-outs stand apart in the source and are kept apart here.

Legend:
[1] = Pharmacokinetics in uninfected vervet monkeys; conditions: for half-life: po, geometric mean terminal elimination half-life
[2] = Metabolism of DB868 in vervet monkey liver microsomes; format: in vitro ADME; conditions: incubation of 10 µM DB868; HPLC/UV; formation confirmed by fluorescence and mass spectrometric detection
Description: DB868 metabolism was studied in male vervet monkey liver microsomes (custom-prepared by XenoTech, LLC, Lenexa, KS, USA) by adapting a previously published method. Briefly, incubation mixtures contained 10 µM DB868, 0.5 mg/mL monkey liver microsomes, and 3.3 mM MgCl2 in 100 mM phosphate buffer (pH 7.4). Reactions were initiated by the addition of NADPH (1 mM final concentration). Control incubations were carried out without NADPH, DB868, or liver microsomes. Aliquots (100 µL) of the reaction mixtures were removed at 0, 5, 10, 15, 30, 60 and 120 min and mixed with 100 µL of ice-cold acetonitrile. After centrifugation to pellet precipitated proteins, the supernatants were analyzed by HPLC/UV and fluorescence using the method previously described for pafuramidine (DB289) and furamidine (DB75). Metabolite identification was performed by comparing retention times to those of synthetic standards for M1 (DB1679), M2 (DB840), M3 (DB1712), and DB829. DB868 and its metabolites were quantified using a calibration curve (0.1–10 µM) generated using synthetic standards.

[3] = tested on: T. b. rhodesiense STIB900; set-up: method as in PMID 19620327; conditions: intraperitoneal administration; cited from earlier work
[4] = Pharmacokinetics in infected vervet monkeys (first stage HAT); format: in vivo, vervet monkey; conditions: for AUClast: last measurable concentration varied (2–133 days)
[5] = tested on: T. b. rhodesiense STIB900; set-up: method as in PMID 19620327; conditions: in vitro; cited from earlier work
T. b. brucei GVR35 = tested on: T. b. brucei GVR35; set-up: method as in PMID 19620327; conditions: intraperitoneal administration; cited from earlier work
[6] = tested on: T. b. brucei s427 trypanosomes; set-up: method as in PMID 21402852; conditions: 2.7 µM; cited from earlier work
[7] = set-up: method as in PMID 20721830; conditions: cited from earlier work
[8] = tested on: T. b. rhodesiense KETRI 2537; set-up: method as in PMID 19064893; conditions: oral, for 5 days; first stage HAT monkey model; cited from earlier work
[9] = oral administration, cited from earlier work
[10] = set-up: method as in earlier work; conditions: cited from earlier work
[11] = after final oral dose of DB868 10 mg/kg×10 days, uninfected, individual monkeys
[12] = after final oral dose of DB868 30 mg/kg×10 days, uninfected, individual monkeys
[13] = oral DB868 10 mg/kg group, infected
[14] = oral DB868 20 mg/kg group, infected
[15] = oral DB868 20 mg/kg×5 days, infected, individual monkeys

## N=C(N)c1ccc(-c2ccc(-c3ccc(C(=N)N)cn3)o2)nc1 [DB829, 2,5-bis(5-amidino-2-pyridyl)furan]
[1]; [11]
  AUC0-∞: 3700 nmol/L•day (2×) and 4100 nmol/L•day and 2400 nmol/L•day
  AUClast: 3000 nmol/L•day and 2800 nmol/L•day and 2100 nmol/L•day (2×)
  t1/2 (terminal elimination half-life): 30 day (2×) and 55 day and 18 day
[1]; [12]
  AUC0-∞: 5600 nmol·days/L and 7000 nmol·days/L and 6200 nmol·days/L and 12100 nmol·days/L
  AUClast: 4700 nmol·days/L and 5700 nmol·days/L and 4600 nmol·days/L and 7100 nmol·days/L
[1]; both, monkey, in vivo, 10 mg/kg, C4 h, plasma concentration at 4 h after final (10th) oral dose of DB868 10 mg/kg×10 days, uninfected, individual monkeys 643, 659, 675, 677
  concentration at 4 h: 240 nM
[1]; both, monkey, in vivo, 10 mg/kg/day, geometric mean C4 h, oral DB868 10 mg/kg/day×10 days, uninfected, n = 4
  concentration at 4 h: 185 nM
[1]; both, monkey, in vivo, 30 mg/kg, C4 h, plasma concentration at 4 h after final (10th) oral dose of DB868 30 mg/kg×10 days, uninfected, individual monkeys 546, 567, 668, 679
  concentration at 4 h: 440 nM
[1]; both, monkey, in vivo, 30 mg/kg, C24 h, plasma, 24 h after final oral dose of DB868 30 mg/kg×10 days, uninfected, individual monkeys
  concentration at 24 h: 360 nM
[1]; both, monkey, in vivo, 30 mg/kg/day, geometric mean C4 h, oral DB868 30 mg/kg/day×10 days, uninfected, n = 4
  concentration at 4 h: 320 nM
[1]; both, monkey, in vivo, 10 mg/kg/day, oral DB868 10 mg/kg/day×10 days, uninfected (second of 'respectively'; agrees with Table 1)
  half-life: 744 h
[1]; both, monkey, in vivo, 30 mg/kg/day, oral DB868 30 mg/kg/day×10 days, uninfected (first of 'respectively'; agrees with Table 1)
  half-life: 696 h
[1]; oral DB868 10 mg/kg/day×10 days, uninfected
  geometric mean C4 h relative to IC50 (14 nmol/L) against T. b. rhodesiense STIB900: 13 fold
[1]; oral DB868 30 mg/kg/day×10 days, uninfected
  geometric mean C4 h relative to IC50 (14 nmol/L) against T. b. rhodesiense STIB900: 23 fold
[1]; oral DB868, in some monkeys (Figures 6 and 8, uninfected and infected)
  time plasma concentrations remained >100 nmol/L after last DB868 dose: up to 7 days post-LDD
[1]; oral DB868×10 days, uninfected
  geometric mean AUC0-∞, 30 mg/kg group relative to 10 mg/kg group: 2.2 fold
  geometric mean AUClast, 30 mg/kg group relative to 10 mg/kg group: 2.2 fold
[1]; plasma concentration at 4 h after final (10th) oral dose of DB868 10 mg/kg×10 days, uninfected, individual monkeys 643, 659, 675, 677
  C4 h: 160 nM and 180 nM and 170 nM
[1]; plasma concentration at 4 h after final (10th) oral dose of DB868 30 mg/kg×10 days, uninfected, individual monkeys 546, 567, 668, 679
  C4 h: 290 nM and 300 nM and 270 nM
[1]; plasma, 24 h after final oral dose of DB868 10 mg/kg×10 days, uninfected, individual monkeys, BLQ = below limit of quantitation
  C24 h: 140 nM and 260 nM and 120 nM and 170 nM
[1]; plasma, 24 h after final oral dose of DB868 30 mg/kg×10 days, uninfected, individual monkeys
  C24 h: 210 nM and 280 nM and 340 nM
[2]
  detection of active compound formed from DB868: at the limit of detection in UV mode
[3]
  curative: 100%
[4]; after final oral dose of DB868 3 mg/kg×7 days, first stage HAT, individual monkeys 638, 643, read-out: Cmax
  Cmax: 230 nM
[4]; after final oral dose of DB868 10 mg/kg×7 days, first stage HAT, individual monkeys 675, 691, read-out: Cmax
  Cmax: 200 nM
[4]; after final oral dose of DB868 20 mg/kg×5 days, infected, individual monkeys
  Tmax: 4.08 h
[4]; monkey, plasma, po, 3 mg/kg, oral DB868 3 mg/kg group, infected, read-out: median Tmax (converted)
  Tmax: 4 h
[4]; monkey, plasma, po, 3 mg/kg/day, oral DB868 3 mg/kg/day×7 days, infected, read-out: median Cmax
  Cmax: 170 nM
[4]; monkey, plasma, po, 10 mg/kg, oral DB868 10 mg/kg group, infected, read-out: median Tmax (converted)
  Tmax: 24 h
[4]; monkey, plasma, po, 10 mg/kg/day, after final oral dose of DB868 10 mg/kg×7 days, first stage HAT, individual monkeys 675, 691, read-out: Cmax
  Cmax: 210 nM
[4]; monkey, plasma, po, 10 mg/kg/day, oral DB868 10 mg/kg/day×7 days, infected, read-out: median Cmax
  Cmax: 205 nM
[4]; monkey, plasma, po, 10 mg/kg/day, oral DB868 10 mg/kg×7 days, infected, monkey 691, read-out: t1/2 (terminal elimination half-life) (converted)
  half-life: 600 h
[4]; monkey, plasma, po, 20 mg/kg, oral DB868 20 mg/kg group, infected, read-out: median Tmax (converted)
  Tmax: 4 h
[4]; monkey, plasma, po, 20 mg/kg/day, after final oral dose of DB868 20 mg/kg×5 days, first stage HAT, individual monkeys 585, 658, read-out: Cmax
  Cmax: 370 nM
[4]; monkey, plasma, po, 20 mg/kg/day, after final oral dose of DB868 20 mg/kg×5 days, infected, individual monkeys, read-out: Tmax (converted)
  Tmax: 4.08 h
[4]; monkey, plasma, po, 20 mg/kg/day, oral DB868 20 mg/kg/day×5 days, infected, read-out: median Cmax
  Cmax: 435 nM
[4]; oral DB868 3 mg/kg/day for 7 days, infected
  median Cmax relative to IC50 (14 nmol/L) against T. b. rhodesiense STIB900: 12 fold
[4]; oral DB868 3 mg/kg×7 days, infected, individual monkeys
  AUClast: 160 nmol·days/L and 950 nmol·days/L
[4]; [13]
  mean AUClast relative to 3 mg/kg group: 7 fold
  median Cmax relative to 3 mg/kg group: 1.2 fold
[4]; oral DB868 10 mg/kg/day for 7 days, infected
  median Cmax relative to IC50 (14 nmol/L) against T. b. rhodesiense STIB900: 15 fold
[4]; oral DB868 10 mg/kg×7 days, infected, individual monkeys
  AUClast: 4000 nmol·days/L and 3500 nmol·days/L
[4]; oral DB868 10 mg/kg×7 days, infected, monkey 691
  AUC0-∞: 3900 nmol·days/L
[4]; [14]
  mean AUClast relative to 3 mg/kg group: 10 fold
  median Cmax relative to 3 mg/kg group: 2.6 fold
[4]; oral DB868 20 mg/kg/day for 5 days, infected
  median Cmax relative to IC50 (14 nmol/L) against T. b. rhodesiense STIB900: 31 fold
[4]; [15]
  AUC0-∞: 10000 nmol·days/L and 5300 nmol·days/L
  t1/2 (terminal elimination half-life): 85 days and 24 days
  AUClast: 7300 nmol·days/L and 4100 nmol·days/L
[4]; oral DB868, infected
  median AUC0-∞ of 20 mg/kg group relative to monkey 691 (10 mg/kg group): twice
  median terminal elimination half-life of 20 mg/kg group relative to monkey 691 (10 mg/kg group): twice
[5]
  IC50: 14 nM
T. b. brucei GVR35
  curative: 100%
[6]
  exposure required to kill trypanosomes in culture: 24 h

## CONC(=N)c1ccc(-c2ccc(-c3ccc(C(=N)NOC)cc3)o2)cc1 [pafuramidine, 2,5-bis(4-amidinophenyl)furan-bis-O-methylamidoxime]
[7]; extended phase I clinical trial in humans
  liver injury: transient liver injury
[7]; five patients
  patients with unexpected severe kidney injury: ~6%
[8]
  dose required to achieve complete cure: 10 mg/kg
[9]; mouse diversity panel
  classical kidney injury biomarkers, BUN and serum creatinine: remained unchanged
[9]; sensitive strains of 34 inbred mouse strains
  urinary kidney injury molecule-1 (KIM-1): marked elevations
[10]; oral 12 mg/kg/day×28 days, one week post-LDD
  increase in KIM-1: 13 fold
[10]; rats, 12 mg/kg/day for 4 weeks
  increase in ALT compared to untreated rats: 18 fold
